“Also recorded” adds a separate entry of the source.
Tests used:
Assay type in all cases: in vivo, Arabidopsis thaliana
VGE receptor [1] = assay: Induction of RF2a expression in transgenic Arabidopsis (Western Blot); conditions: 1:8000 dilution of Intrepid 2F; plants with E:GUS, 5G35Sm:RF2a, Cs:VGE
Source text: Induction of RF2a expression—RF2a expression was induced in the transgenic Arabidopsis plants described herein by application of a 1:8000 dilution of the pesticide Intrepid® 2F (Dow AgroSciences, Indianapolis, Ind.). The active ingredient in Intrepid® 2F pesticide is methoxyfenozide. […] Accordingly, the methoxyfenozide compound served as an expression-inducing ligand, which functioned to enhance expression of the RF2a-encoding sequence. Upon application of the methoxyfenozide compound, RF2a expression was induced, thereby allowing RF2a to interact with the Box II-containing E fragment, which was operably linked to the uidA sequence.
Western Blot analysis—To detect the expression of RF2a in select transgenic lines described above, either treated or untreated with Intrepid® 2F, 40 μg of protein of each sample was separated by 12% SDS-PAGE and blotted onto nitrocellulose membrane. The Arabidopsis lines analyzed by Western Blot included EGaV50, EGaV59, EGaV63, EGaV70, EGaV72, and E:GUS. Rabbit anti-RF2a antibodies were first applied to the nitrocellulose membrane, incubated, and washed. Next, anti-rabbit horseradish peroxidase-conjugated secondary antibodies were applied to the membrane, incubated, and washed. Finally, SuperSignal substrate (Pierce, Rockford, Ill.) was applied to the membrane, incubated, and washed.

VGE receptor [2] = assay: Quantitative GUS activity (MUG) in T2 transgenic Arabidopsis; conditions: twelve T2 lines, 1:8000 dilution of Intrepid 2F in hydroponic solution, three days
Procedure: Quantitative analysis of GUS activity in methoxyfenozide-treated plants was then conducted. T2 generation transgenic Arabidopsis plants from twelve T1 primary lines were selected on hygromycin selection medium. The lines are individually referred to herein as EGaV-3, EGaV-5, EGaV-17, EGaV-31, EGaV-50, EGaV-51, EGaV-56, EGaV-59, EGaV-63, EGaV-70, EGaV-72, and E:GUS. For each primary line, eighteen 14-day-old T2 plants were used. Nine plants, in three groups, were cultured in MS hydroponic solution containing a 1:8000 dilution of Intrepid 2F®. The remaining nine plants, in three groups, were left untreated and served as controls. After a three-day treatment period, the GUS activity in leaf tissue samples from each plant was quantified.
Each sample of leaf tissue was ground to a powder in liquid nitrogen. Total protein was extracted from each sample by adding 300 μl of extraction buffer. Protein concentration of each sample was quantified using a Dc Protein Assay Kit (Bio-Rad Laboratories, Hercules, Calif.). GUS activity of each sample was quantified using MUG as substrate and a fluorescence spectrometer (Molecular Devices, Sunnyvale, Calif.) (Petruccelli et al., 2001).

VGE receptor [3] = assay: Histochemical GUS staining of treated leaves of T1 transgenic Arabidopsis; conditions: 67 T1 plants, 1:8000 dilution of Intrepid 2F on one leaf, two days, X-Gluc
Procedure: Analysis of GUS activity—The relative GUS activity in the transgenic Arabidopsis plants described herein was measured by histochemical analysis. In each of sixty-seven (67) T1 transgenic Arabidopsis plants carrying E:GUS, 5G35Sm:RF2a and Cs:VGE, the 1:8000 dilution of Intrepid® 2F described above was applied to one true leaf, while the other leaves in each plant remained untreated. Two-days following the application of the expression-inducing ligand, the treated leaf together with one untreated leaf from the same plant were detached and subjected to GUS staining.
More particularly, the plant leaf tissues mentioned above were submerged in stain solution containing 1 mM of X-Gluc in 100 mM sodium phosphate buffer (pH 7.0), 2 mM K3Fe(CN)6, 2 mM K4Fe(CN)6, 0.1% Triton X-100 and 20% methanol (Petruccelli et al. 2001). In order to evaluate GUS activity, several substrates are available. The most commonly used are 5-bromo-4-chloro-3-indolyl glucuronide (X-Gluc) and 4-methyl-umbelliferyl-glucuronide (MUG). […] For quantification purposes, MUG is preferred, because the umbelliferyl radical emits fluorescence under UV stimulation, thus providing better sensitivity and easy measurement by fluorometry. […]

## COc1cccc(C(=O)NN(C(=O)c2cc(C)cc(C)c2)C(C)(C)C)c1C [methoxyfenozide]
VGE receptor [1]
  RF2a expression: enhance RF2a expression; also recorded: presence of RF2a
VGE receptor [2]
  induction of GUS expression in relation to untreated control plants, average: 2.1 fold
VGE receptor [3]
  plants with constitutive GUS expression pattern in treated leaves: approximately 70%

Source: patent publication US7847064B2, “Methods and compositions for regulating gene expression in plant cells” (Donald Danforth Plant Science Center, priority 2004, dated 2010)
